According to US6790833B2, “Antifungal and antibacterial agents” (priority 2001, dated 2004):
Where a SMILES comes first, the peptide text is derived from it.

How the values were obtained:
C. albicans [1] = assay: Antifungal (cidal) activity assay, loss of cell viability; type: cell-based, Candida albicans; conditions: for Loss of Cell viability (%): Candida albicans, 6.25 μM, pH 7.4
Description: (§1) Azole-sensitive (# 2-76) and azole-resistant (# 12-99) clinical isolates of C. albicans were a gift from Dr. Theodore C. White (University of Washington and Seattle Biomedical Research Institute, Seattle, Wash.). An azole-sensitive Candida glabrata (C. glabrata) was purchased from ATCC (ATCC 90030) and its azole-resistant counterpart, clinical isolate 65C, was obtained from Dr. John E. Bennett (National Institute of Allergy and Infectious Diseases, Bethesda, Md.). A clinical isolate of Candida krusei (C. krusei) was obtained from the Erie County Medical Center, Buffalo, N.Y. Amphotericin B-sensitive (CN2) and -resistant (CN2843) C. neoformans strains were obtained from AIDS patients with cryptococcal meningitis and were generously provided by Dr. John H. Rex (University of Texas Medical School, Houston, Tex.). Additionally, Saccharomyces cerevisiae (S. serevisiae) strain S288C was provided by Dr. D. Kosman, Department of Biochemistry, University at Buffalo, the State University of New York. All fungi were streaked and grown on SAB plates at 37° C., except S. cerevisiae, which was grown at 30° C. until large colonies were formed. One colony was then picked and resuspended in Na phosphate buffer (pH 7.4) and the concentration was adjusted to 1×10^5 cell/ml for the antifungal assay described below.
(§2) Two fold serial dilutions of each peptide (ranging from 100 μM down to 1.5625 μM) in 20 μl of 10 mM Na phosphate buffer, pH 7.4, were incubated with an equal volume of bacterial or fungal strain (10^5 cells/ml) for 1.5 hours at 30° C. for S. cerevisiae and 37° C. for the rest of strains tested. At the end of incubation, the samples were diluted 20 fold and aliquots (˜120 cells) of each sample were plated on appropriate plates depending on the strain tested, as indicated above. Plates were incubated for 1 to 7 days aerobically or anaerobically, depending on the strain tested. Colonies were then counted, and the loss of cell viability was plotted as a function of protein concentration. Fungicidal activities against C. albicans and C. neoformans were also tested at 4° C.
(§3) To test the effect of inhibitors of oxidative phosphorylation in the mitochondrial system on peptide-induced killing, C. albicans and C. neoformans (CN2) were preincubated with either 20 mM sodium azide or 300 μM CCCP for 2 hours at 37° C. The cidal assays were then carried out as described above. In separate control experiments, both inhibitors were evaluated for their toxicity toward C. albicans and C. neoformans (CN2) in the absence of peptides. At these concentrations, neither compound had any cidal effect. In addition, the fungicidal activities of MUC7 20-mer and Hsn-5 (25 μM) in 10 mM Na phosphate buffer (pH 7.4) in the presence of varying concentrations (1-50 mM) of Ca^++ (as CaCl2) or Mg^++ (as MgCl2) were examined.
(§4) A time course study of peptide-induced killing was statistically analyzed by student t-test.
(§5) Two fold serial dilutions of each peptide (ranging from 50 or 25 μM down to 1.5625 μM) in 20 μl of 10 mM Na phosphate buffer, pH 7.4, were incubated with an equal volume of fungal strain (10^5 cells/ml, also in Na phosphate buffer) for 1.5 hours at 37°. At the end of incubation, the samples were diluted 20 fold with the same buffer and aliquots (˜150 cells) of each sample were plated on SAB plates. Plates were incubated for 1 to 2 days for C. albicans and C. neoformans, respectively. Colonies were then counted, and the loss of cell viability was plotted as a function of protein concentration. The statistical analysis was as described in Example 1.

C. albicans [2] = assay: Fungal transmembrane potential, DiSC3(5) dye release; type: cell-based, Candida albicans; conditions: peptide 18 μM, 1500 second
Method: (§6) Peptide-induced permeabilization of C. albicans and C. neoformas cell membranes was monitored by measuring changes in transmembrane potential. Measurements were carried out using the transmembrane potential sensitive dye 3,3′-dipropyl-2,2′-thiadicarbocyanine iodide (DiSC3(5)). Fungi were grown overnight on SAB plates and resuspended in 10 mM Na phosphate buffer pH 7.4 at a concentration of 1×10^5 cells/ml. Dye was diluted in ethanol to achieve a final concentration of 714 nM. […] The use of this dye in fungal cells to monitor changes in permeabilization is reliable and well documented. This cationic dye accumulates on membranes, is translocated into the lipid bilayer and aggregates within the confined membrane interior. Once aggregated inside the cell, the molecules interact with each other, losing energy, and decreasing fluorescence through a process called quenching. If permeabilization occurs, dye is released into the medium and it regains its fluorescent properties, allowing it to be detected. Experiments were carried out using a spectrofluorimeter (Perkin Elmer LS 50 B). A water bath and circulator was connected to the machine.

A. actinomycetemcomitans = assay: Fluorescence microscopy, internalization of FITC-labeled peptide in bacteria; type: cell-based, Actinobacillus actinomycetemcomitans; conditions: data not shown
Description: In order to visualize the association of 20-mer with fungi or bacteria and its fungal cellular localization, N-terminal FITC-labeled MUC7 20-mer was used. […] In addition, confocal fluorescence microscopy was used to study the intracellular target of the peptides.

C. neoformans [3] = assay: Antifungal (cidal) activity assay, loss of cell viability; type: cell-based, Cryptococcus neoformans; conditions: for Loss of Cell viability (%): Cryptococcus neoformans, 6.25 μM, pH 7.4
Description: as §1, §2, §3, §4, §5

C. albicans [4] = assay: Fluorescence light and confocal microscopy, internalization of FITC-labeled peptide; type: cell-based, Candida albicans
Method: (§7) The internalization of MUC7 20-mer into fungi was visualized in C. albicans and C. neoformans. Untreated cells (10^7) or cells preincubated with 20 mM sodium azide, 300 μM CCCP, 50 mM Ca^++ or 50 mM Mg^++ were then treated with 50 μM FITC-MUC7 20-mer for 45-90 minutes in 100 μl of Na phosphate buffer (10 mM, pH 7.4) at 37° C. Untreated cells were also incubated with 50 μM FITC-MUC7 20-mer at 4° C. The cells were then extensively washed with phosphate buffer, concentrated and resuspended in the same buffer. The cell suspension was then quickly mounted on slides with sealed cover-slips. Fluorescence light micrographs were made on a Nikon Optiphot microscope, with a fluorescent light source.
(§8) The intracellular localization of FITC-MUC7-20mer was investigated in a double-labeling experiment using MitoTracker Red mitochondrial probe. C. albicans and C. neoformans were incubated with 500 nM MitoTracker Red in 10 mM Na phosphate buffer, pH 7.4 for 15 minutes at room temperature, washed three times with the same buffer, and subsequently incubated with 50 μM FITC-MUC7 20-mer. After 20 min. incubation at 37° C., the suspension was washed with phosphate buffer extensively. The cell suspension was then quickly mounted on slides with sealed cover-slips. Confocal fluorescence microscopy was performed with a BioRad MRC-1024 confocal microscope system with Krypton-argon laser which outputs 488, 568 and 647 nm excitation line and Nikon upright epifluorescence microscope (Zeiss 60× oil immersion planApp objective with 1.4 numerical aperture).
(§9) The internalization of MUC7 20-mer and 12-mer-3 into fungi was visualized using FITC labeled peptides. Cells (10^7) were treated with 50 μM FITC-MUC7 20-mer or 12-mer-3 for 45-90 mins in 100 μl of Na phosphate buffer (10 mM, pH 7.4) at 37° C. The cells were then processed and visualized as described in Example 1.

C. neoformans [5] = assay: as above; type: cell-based, Cryptococcus neoformans
Method: as §7, §8, §9

C. neoformans [6] = assay: Fungal transmembrane potential, DiSC3(5) dye release; type: cell-based, Cryptococcus neoformans; conditions: peptide 18 μM, 1500 second
Method: as §6

[7] = 4° C., 20 mM sodium azide, 300 μM CCCP

## CC[C@H](C)[C@H](NC(=O)[C@H](Cc1ccccc1)NC(=O)[C@@H]1CCCN1C(=O)[C@H](CCCCN)NC(=O)[C@H](CCC(N)=O)NC(=O)[C@H](Cc1c[nH]cn1)NC(=O)[C@H](C)NC(=O)[C@@H](N)CC(C)C)C(=O)N[C@@H](CCCNC(=N)N)C(=O)N[C@@H](CCCCN)C(=O)N[C@@H](CO)C(=O)N[C@@H](Cc1ccc(O)cc1)C(=O)N[C@@H](CCCCN)C(=O)N[C@@H](CS)C(=O)N[C@@H](CC(C)C)C(=O)N[C@@H](Cc1c[nH]cn1)C(=O)N[C@@H](CCCCN)C(=O)N[C@@H](CCCNC(=N)N)C(=O)N[C@@H](CS)C(=O)N[C@@H](CCCNC(=N)N)C(=O)O [Peptide 20-mer] (H-LAHQKPFIRKSYKCLHKRCR-OH; N-terminus and C-terminus assumed)
C. albicans [1]
  killing activity at 4° C.: ~90%
C. albicans [1]; C. albicans, 300 μM CCCP or 20 mM sodium azide, 2 hours
  effect of pretreatment with CCCP or sodium azide on peptide-induced killing: did not protect
C. albicans [1]; C. albicans, 1 mM Ca++ or Mg++, peptide 25 μM
  effect of 1 mM Ca++ or Mg++ on anticandidal activity: limited effect
C. albicans [1]; C. albicans, 10 mM Ca++ or Mg++, peptide 25 μM
  anticandidal activity sustained in the presence of Ca++ or Mg++: 10%
C. albicans [1]; 15 min
  Loss of Cell viability (%): 42 + 5%
C. albicans [1]; 30 min
  Loss of Cell viability (%): 52 + 1%
C. albicans [1]; 45 min
  Loss of Cell viability (%): 64 + 3%
C. albicans [1]; 90 min
  Loss of Cell viability (%): 74 + 6%
C. albicans [2]
  release of DiSC3(5) dye (loss of membrane potential): rapid release of dye
A. actinomycetemcomitans
  internalization in bacterial cells: seen on the cell membrane and the inside
C. neoformans [3]; 25 μM
  killing retained in the presence of Ca++: 90%
  killing retained in the presence of Mg++: 84%
C. neoformans [3]; C. neoformans, 300 μM CCCP or 20 mM sodium azide, 2 hours
  effect of pretreatment with CCCP or sodium azide on peptide-induced killing: did not protect
C. neoformans [3]; C. neoformans, 4° C.
  activity at 4° C.: hardly affected
C. neoformans [3]; 30 min
  Loss of Cell viability (%): 96 + 2%
C. neoformans [3]; 45 min
  Loss of Cell viability (%): 98 + 1%
C. neoformans [3]; 90 min
  Loss of Cell viability (%): 100 + 0%
C. albicans [4]; 50 μM, 45-90 minutes, 37° C.
  internalization of FITC-labeled peptide: internalization is observed
C. albicans [4]; [7]
  uptake at 4° C. or after pretreatment with sodium azide or CCCP: did not affect uptake
C. neoformans [5]; 50 μM, 45-90 minutes, 37° C.
  internalization of FITC-labeled peptide: internalization is observed
C. neoformans [5]; [7]
  uptake at 4° C. or after pretreatment with sodium azide or CCCP: did not affect uptake
C. neoformans [6]
  release of DiSC3(5) dye (loss of membrane potential): rapid release of dye
